The values that follow are results of earlier work, collected in patent US10881127B1, “Manufacturing method of water-solubilized solution of mastic resin” (VENN SKINCARE, INC., priority 2019, dated 2021).

The conditions of this data set: in room temperature or in water.

Molecules are shown by their SMILES.

As for `O=C1O[C@H]([C@@H](O)CO)C(O)=C1O` [L-ascorbic acid], the “stability of L-ascorbic acid” value was “easily oxidized and broken”.
